According to patent US8716030B2, “Means for the inhibition of anti-β1-adrenergic receptor antibodies” (Julius-Maximillians-Universitat Wurzburg, A Germany …, priority 2005, dated 2014):
Entries after “also recorded” stand apart in the source; their conditions may differ. Read-outs that look alike come from different tables or passages of the source.

Experiments:
[1] = system: rats immunized against the second β1-receptor loop (β1-ECII); assay: Prevention of immune-cardiomyopathy in the human analogue rat model
[2] = system: immunized anti-β1-positive cardiomyopathic rats; assay: Treatment of immune-cardiomyopathy in the human analogue rat model (therapy study); format: in vivo, Lewis CrlBR rats; conditions: for regression of LV dilatation: therapy study; for regression of LV dilatation / biological efficiency (reversal of the cardiomyopathic phenotype): echocardiography; for progression of the disease monitored by echocardiography: within the 12 months of treatment, compared with untreated antibody positive animals, FIGS. 10 and 11; for biological efficiency (reversal of the cardiomyopathic phenotype): FIGS. 10d and 11d
[3] = system: immunized anti-β1-positive cardiomyopathic rats; assay: as above; format: in vivo, Lewis CrlBR rats; conditions: therapy every 4 weeks after 8 months of immunization; FIGS. 8a and 8b
Excerpt: Lewis CrlBR rats were used as animals. […] Therapy was started after 8 months of regular (1× monthly) immunization. Monthly immunization was continued under therapy.
FIG. 8b is a diagram comparing the titer course of specific anti-ECII antibodies dependent on the different peptide variants used in the therapy arm of the study, whereby 25AA means the cyclic peptide Ic, 18AA means the shorter 18 amino-acid variant, and 16AA the shorter 16 amino-acid variant of the peptide. “Beta1 untreated” means immunized anti-1-positive cardiomyopathic not treated animals, “Beta1/pept. […] ECII-25AA, ECII-18AA, ECII-16AA” means immunized anti-1-positive cardiomyopathic animals treated with the 25AA-, 18AA-, or 16AA-peptide, respectively.
[…]. In general, the number of amino acids and thus the length of the primary structure appears to be crucial for the biological effects of the peptides of the present invention. A peptide-length equal to or above 26 amino acids (primary structure) is thought to be capable of stimulating directly (that is, without the use of carrier proteins) immunocompetent T-cells and thus provoke a paradoxal increase in anti-β1-receptor antibody production through T-cell mediated B-cell stimulation. Therefore, in the frame of the therapy study a limited number of pilot animals was treated with shorter peptide-variants of the 25 amino-acid peptide Ic, i.e. variants comprising either 18 or 16 amino-acids of the cyclic peptide. The used constructs were: ECII-18AA, cyclo([…] (SEQ ID NO:1); and ECII-16AA, cyclo([…] (SEQ ID NO.2). Upon administration of shorter peptide-variants of the present invention peptide every 4 weeks, a rapid decrease in the specific anti-beta 1-ECII antibody titer was equally observed within the first 6 months of therapy.

[4] = system: rats immunized against the second β1-receptor loop (β1-ECII); conditions: rat, in vivo
[5] = system: CD4+ T-cells; assay: T-cell recall assay with CD4+ T-cells from immunized animals (FIG. 19); format: cell-based, rat; conditions: T-cells from prophylactically or therapeutically treated immunized animals; peptide 10 μg/ml, FP 1.0 or 0.1 μg/mL
Procedure: “Cont.” means the respective not immunized control animals. The assays were carried out according to Schmidt J. et al. (2003) J Neuroimmunol. 140, 143-152. In brief, to purify CD4+ T-cells from the splenic cell preparations, B-cells and CD8+ T-cells were depleted by commercially available magnetic beads (MACS®), yielding a purity of CD4+ cells >85%. 1×10^5 CD4+ of the purified T-cells were then co-incubated in 96-well plates with 1×10^6 irradiated thymic antigen presenting cells (prepared from a younger rat). Reagents added in the different assays (conditions) were: 10 μg/ml glutathion-S-transferase (GST), 2 μg/ml Concanavalin A (ConA, positive control), 10 μg/ml 25AA-ECII peptide (Pept.25AA), and GST/beta1-ECII fusion protein (FP) at a concentration of 1.0 and 0.1 μg/ml, respectively. The measured T-cell reactivities were normalized to the respective T-cell reactivities obtained with 10 μg/ml purified protein derivative (PPD) carried out in parallel under each condition. After 48 hours of incubation, 50% of the supernatants were removed and replaced by fresh medium. The cells were then pulsed with 1.25 μCi/well [^3H]-thymidine and further incubated for 16 hours before the cells were harvested, and the DNA-incorporated radioactivity was measured using a beta-plate.

Row | Molecule | impact on heart rate and blood pressure ([1]; FIG. 12 and FIG. 13, examples 3 and 4 (prevention and therapy study)) | heart rate ([1]; prophylactic treatment, FIGS. 5 and 12) | cardiac β1-receptor density (down-/upregulation) ([2]; FIGS. 17 and 18 (prevention and therapy study)) | regression of LV dilatation [2] | progression of the disease monitored by echocardiography [2] | circulating specific anti-β1-ECII antibody titer [3] | specific anti-β1-ECII antibody-titer ([1]; 1 mg/kg s.c. or i.v. every 4 weeks, prophylactic, FIG. 4) | immune response upon antigen boost every 4 weeks ([1]; from the fifth month on, FIG. 4) | heart rate [4] | stimulation and proliferation of CD4+ T-cells [5] | biological efficiency (reversal of the cardiomyopathic phenotype) [2]
1 | CC(C)NCC(O)COc1ccc(COCCOC(C)C)cc1 (stereo not drawn) [bisoprolol, reference compound] | significantly reduced both heart rate and blood pressure | significant reduction in heart rate | β1-receptor upregulation | could not be reversed completely | no progression | had even higher beta1-antibody titers |  |  |  |  | 
2 | cyclo(Ala-Arg-Ala-Glu-Ser-Asp-Glu-Ala-Arg-Arg-Cys-Tyr-Asn-Asp-Pro-Lys-Cys-Cys-Asp-Phe-Val-Thr-Asn-Arg-Gln) (cyclo(ARAESDEARRCYNDPKCCDFVTNRQ); not fully specified; printed as cyclo(Ala-Arg-Ala-Glu-Ser-Asp-Glu-Ala-Arg-Arg-Cys-Tyr-Asn-Asp-Pro-Lys-Cys-Cys-Asp-Phe-Val-Thr-Asn-Arg-Gln); cysteine pairing not given here) [peptide Ic] |  |  |  | significant regression of LV dilatation | no progression | surprisingly rapid decrease; also recorded: reduced by about a same extent | prevented a further increase of the specific anti-β1-ECII antibody-titer with the titer even continuously declining | no more immune response | did neither decrease heart rate | neither treatment group resulted in a significant stimulation | reversal of the cardiomyopathic phenotype
3 | cyclo(Ala-Arg-Arg-Cys-Tyr-Asn-Asp-Pro-Lys-Cys-Cys-Asp-Phe-Val-Tyr-Gln) (cyclo(ARRCYNDPKCCDFVYQ); not fully specified; printed as cyclo(Ala-Arg-Arg-Cys-Tyr-Asn-Asp-Pro-Lys-Cys-Cys-Asp-Phe-Val-Tyr-Gln); cysteine pairing not given here) [ECII-16AA] |  |  |  | obviously being less effective | at least the progression of the disease was stopped or stabilized | remain stable instead of decreasing |  |  |  |  | ambiguous results in 2 treated rats with one animal having complete reversal of the cardiomyopathic phenotype, the other animal progressive LV dilatation and dysfunction
4 | cyclo(Ala-Asp-Glu-Ala-Arg-Arg-Cys-Tyr-Asn-Asp-Pro-Lys-Cys-Cys-Asp-Phe-Val-Gln) (cyclo(ADEARRCYNDPKCCDFVQ); not fully specified; printed as cyclo(Ala-Asp-Glu-Ala-Arg-Arg-Cys-Tyr-Asn-Asp-Pro-Lys-Cys-Cys-Asp-Phe-Val-Gln); cysteine pairing not given here) [ECII-18AA] |  |  |  | significant regression of LV dilatation |  | reduced by about a same extent |  |  |  |  | reversal of the cardiomyopathic phenotype
